Measurements as given in ChEMBL document CHEMBL5620360, “Design, synthesis and biological evaluation of 4-(4-aminophenoxy)picolinamide derivatives as potential antitumor agents” (Eur J Med Chem, 2023).
The source made the active and inactive calls. The calls are words filed in the database; no cut-off is given here.

Legend:
HeLa = experiment: Antiproliferative activity against human HeLa cells assessed as reduction in cell viability incubated for 72 hrs by MTT assay; format: functional, cell-based; settings: Homo sapiens, HeLa, 72 h; read-out: IC50
A549 [1] = experiment: Induction of apoptosis in human A549 cells assessed as viable cells at […] measured after 24 hrs by AnnexinV-FITC/PI staining based flow cytometry (reference value: 93.25%); format: functional; settings: dose 2.5 µM, read-out: Activity
A549 [2] = experiment: Induction of apoptosis in human A549 cells assessed as early apoptotic cells at […] measured after 24 hrs by AnnexinV-FITC/PI staining based flow cytometry (reference value: 1.26%); format: functional; settings: dose 2.5 µM
A549 [3] = experiment: Induction of apoptosis in human A549 cells assessed as late apoptotic cells at […] measured after 24 hrs by AnnexinV-FITC/PI staining based flow cytometry (reference value: 1.47%); format: functional; settings: dose 2.5 µM
A549 [4] = experiment: Induction of apoptosis in human A549 cells assessed as necrotic cells at […] measured after 24 hrs by AnnexinV-FITC/PI staining based flow cytometry (reference value: 4.01%); format: functional; settings: dose 2.5 µM
A549 [5] = experiment: Induction of apoptosis in human A549 cells assessed as viable cells at 5 uM measured after 24 hrs by AnnexinV-FITC/PI staining based flow cytometry (reference value: 93.25%); format: functional; settings: read-out: Activity
A549 [6] = experiment: Induction of apoptosis in human A549 cells assessed as early apoptotic cells at 5 uM measured after 24 hrs by AnnexinV-FITC/PI staining based flow cytometry (reference value: 1.26%); format: functional
A549 [7] = experiment: Induction of apoptosis in human A549 cells assessed as late apoptotic cells at 5 uM measured after 24 hrs by AnnexinV-FITC/PI staining based flow cytometry (reference value: 1.47%); format: functional
A549 [8] = experiment: Induction of apoptosis in human A549 cells assessed as necrotic cells at 5 uM measured after 24 hrs by AnnexinV-FITC/PI staining based flow cytometry (reference value: 4.01%); format: functional
A549 [9] = experiment: Induction of apoptosis in human A549 cells assessed as viable cells at 10 uM measured after 24 hrs by AnnexinV-FITC/PI staining based flow cytometry (reference value: 93.25%); format: functional; settings: read-out: Activity
A549 [10] = experiment: Induction of cell cycle arrest in human A549 cells assessed as accumulation of cells at G1 phase at […] incubated for 24 hrs by propidium iodide staining based flow cytometry (reference value: 54.46%); format: functional; settings: dose 2.5 µM
A549 [11] = experiment: Induction of cell cycle arrest in human A549 cells assessed as accumulation of cells at S phase at […] incubated for 24 hrs by propidium iodide staining based flow cytometry (reference value: 38.18%); format: functional; settings: dose 2.5 µM
A549 [12] = experiment: Induction of cell cycle arrest in human A549 cells assessed as accumulation of cells at G1 phase at 5 uM incubated for 24 hrs by propidium iodide staining based flow cytometry (reference value: 54.46%); format: functional
A549 [13] = experiment: Induction of cell cycle arrest in human A549 cells assessed as accumulation of cells at G2 phase at 5 uM incubated for 24 hrs by propidium iodide staining based flow cytometry (reference value: 7.36%); format: functional
A549 [14] = experiment: Induction of cell cycle arrest in human A549 cells assessed as accumulation of cells at G2 phase at 10 uM incubated for 24 hrs by propidium iodide staining based flow cytometry (reference value: 7.36%); format: functional
A549 [15] = experiment: Induction of cell cycle arrest in human A549 cells assessed as accumulation of cells at S phase at 10 uM incubated for 24 hrs by propidium iodide staining based flow cytometry (reference value: 38.18%); format: functional
[16] = AUC(0 to t) in Sprague-Dawley rat at 1 mg/kg, iv by LC-MS/MS analysis; format: ADME, organism-based; settings: in vivo
[17] = Cmax in Sprague-Dawley rat at 1 mg/kg, iv by LC-MS/MS analysis; format: ADME, organism-based; settings: in vivo
[18] = AUC(0 to t) in Sprague-Dawley rat at 10 mg/kg, po by LC-MS/MS analysis; format: ADME, organism-based; settings: in vivo
[19] = AUC(0 to infinity) in Sprague-Dawley rat at 10 mg/kg, po by LC-MS/MS analysis; format: ADME, organism-based; settings: in vivo
[20] = Half life in Sprague-Dawley rat at 10 mg/kg, po by LC-MS/MS analysis; format: ADME, organism-based; settings: in vivo
[21] = molecular target: T1, Receptor-type tyrosine-protein kinase FLT3 (Homo sapiens, UniProt P36888); experiment: Inhibition of Flt3 (unknown origin)
T1 sequence (P36888 whole entry): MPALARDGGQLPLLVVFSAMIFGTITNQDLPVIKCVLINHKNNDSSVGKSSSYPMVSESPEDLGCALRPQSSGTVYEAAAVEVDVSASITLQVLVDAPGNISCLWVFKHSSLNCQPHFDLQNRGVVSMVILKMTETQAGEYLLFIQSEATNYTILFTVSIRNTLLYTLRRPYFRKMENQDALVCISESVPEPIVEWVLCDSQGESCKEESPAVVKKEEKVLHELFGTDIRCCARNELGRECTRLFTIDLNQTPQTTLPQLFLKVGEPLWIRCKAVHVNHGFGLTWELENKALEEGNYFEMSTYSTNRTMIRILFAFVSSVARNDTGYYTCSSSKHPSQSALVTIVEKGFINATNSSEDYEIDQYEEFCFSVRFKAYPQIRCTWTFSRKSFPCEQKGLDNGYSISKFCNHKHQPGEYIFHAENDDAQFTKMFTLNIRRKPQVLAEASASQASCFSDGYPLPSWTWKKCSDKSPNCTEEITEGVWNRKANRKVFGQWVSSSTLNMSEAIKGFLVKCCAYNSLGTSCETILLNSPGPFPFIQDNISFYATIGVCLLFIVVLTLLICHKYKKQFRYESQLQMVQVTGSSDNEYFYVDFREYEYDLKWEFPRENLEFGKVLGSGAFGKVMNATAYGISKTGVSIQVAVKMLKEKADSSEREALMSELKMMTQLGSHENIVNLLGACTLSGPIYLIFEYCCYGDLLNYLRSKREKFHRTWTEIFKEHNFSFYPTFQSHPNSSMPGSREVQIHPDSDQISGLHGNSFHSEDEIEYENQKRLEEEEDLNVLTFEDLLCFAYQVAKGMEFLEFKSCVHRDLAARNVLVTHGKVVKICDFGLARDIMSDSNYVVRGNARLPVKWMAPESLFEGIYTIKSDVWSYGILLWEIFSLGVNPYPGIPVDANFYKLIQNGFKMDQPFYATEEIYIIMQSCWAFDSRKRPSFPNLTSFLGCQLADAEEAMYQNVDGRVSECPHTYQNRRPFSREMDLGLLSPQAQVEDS

[22] = molecular target: Mast/stem cell growth factor receptor Kit (Homo sapiens, UniProt P10721); experiment: Inhibition of c-Kit (unknown origin)
Mast/stem cell growth factor receptor Kit, sequence (P10721 whole entry): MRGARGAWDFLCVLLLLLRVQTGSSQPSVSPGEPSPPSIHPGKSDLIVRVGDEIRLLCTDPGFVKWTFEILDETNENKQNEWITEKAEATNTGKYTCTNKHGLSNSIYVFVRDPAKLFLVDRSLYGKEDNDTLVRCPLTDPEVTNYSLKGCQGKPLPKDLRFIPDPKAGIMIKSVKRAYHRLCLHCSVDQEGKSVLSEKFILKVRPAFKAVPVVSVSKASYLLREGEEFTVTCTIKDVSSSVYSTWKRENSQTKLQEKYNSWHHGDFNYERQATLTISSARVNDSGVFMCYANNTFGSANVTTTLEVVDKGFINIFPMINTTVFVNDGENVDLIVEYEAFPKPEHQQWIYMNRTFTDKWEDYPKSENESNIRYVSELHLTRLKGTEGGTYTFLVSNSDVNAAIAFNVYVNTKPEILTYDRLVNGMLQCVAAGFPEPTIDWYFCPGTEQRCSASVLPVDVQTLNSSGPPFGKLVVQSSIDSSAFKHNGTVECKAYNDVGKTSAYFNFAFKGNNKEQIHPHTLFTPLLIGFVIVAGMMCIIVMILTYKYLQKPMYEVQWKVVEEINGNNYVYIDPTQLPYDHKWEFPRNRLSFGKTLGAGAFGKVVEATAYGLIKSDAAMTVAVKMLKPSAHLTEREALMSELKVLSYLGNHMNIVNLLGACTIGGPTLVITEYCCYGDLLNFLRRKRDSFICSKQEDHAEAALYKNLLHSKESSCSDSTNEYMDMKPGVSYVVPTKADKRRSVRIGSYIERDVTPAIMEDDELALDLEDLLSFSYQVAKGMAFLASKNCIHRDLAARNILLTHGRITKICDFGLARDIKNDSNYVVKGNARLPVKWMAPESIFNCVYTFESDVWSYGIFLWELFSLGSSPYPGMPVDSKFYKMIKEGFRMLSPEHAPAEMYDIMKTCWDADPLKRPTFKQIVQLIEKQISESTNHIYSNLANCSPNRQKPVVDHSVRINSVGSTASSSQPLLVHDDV

[23] = molecular target: Dual specificity mitogen-activated protein kinase kinase 1 (Homo sapiens, UniProt Q02750); experiment: Inhibition of MEK1 (unknown origin)
Dual specificity mitogen-activated protein kinase kinase 1, sequence (Q02750 whole entry): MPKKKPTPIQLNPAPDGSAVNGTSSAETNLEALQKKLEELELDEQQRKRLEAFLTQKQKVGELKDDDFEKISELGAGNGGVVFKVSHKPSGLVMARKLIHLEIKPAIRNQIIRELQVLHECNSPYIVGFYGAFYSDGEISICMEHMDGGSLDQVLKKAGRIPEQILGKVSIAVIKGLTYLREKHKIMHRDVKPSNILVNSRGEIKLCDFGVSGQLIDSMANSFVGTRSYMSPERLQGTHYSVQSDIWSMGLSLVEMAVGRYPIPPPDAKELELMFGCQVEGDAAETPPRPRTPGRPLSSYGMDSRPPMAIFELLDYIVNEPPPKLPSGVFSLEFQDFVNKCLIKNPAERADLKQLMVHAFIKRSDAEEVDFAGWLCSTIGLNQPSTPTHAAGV

A549 [24] = experiment: Induction of morphological changes in human A549 cells assessed as nucleus division and dispersion at 1.1 uM measured after 12 hrs by acridine orange staining based fluorescence microscopy; format: functional, cell-based
A549 [25] = experiment: Potency index, ratio of cabozantinib IC50 to test compound IC50 for antiproliferative activity against human A549 cells; format: functional
MCF7 = experiment: cells; settings: Homo sapiens, MCF7, 72 h

- IC50 (HeLa): 0.82 µM
- AUC(0-t) [16]: 2860 ng·h/mL
- Cmax [17]: 1630 ng/mL
- AUC(0-t) [18]: 3320 ng·h/mL
- AUC(0-inf) [19]: 3400 ng·h/mL
- half-life [20]: 4.5 h
- IC50 [21]: > 100 µM
- IC50 [22]: > 100 µM
- IC50 [23]: > 100 µM
- IC50 (MCF7): 2.35 µM
SMILES: O=C(NCCCN1CCOCC1)c1cc(Oc2ccc(NC(=O)c3cn(-c4ccc(F)c(Cl)c4)c4ncccc4c3=O)cc2F)ccn1
- viability at […] (A549 [1]): 93.1%
- Activity (A549 [2]): 1.57%
- Activity (A549 [3]): 2.02%
- Activity (A549 [4]): 3.34%
- viability at 5 µM (A549 [5]): 85.2%
- Activity (A549 [6]): 3.02%
- Activity (A549 [7]): 4.29%
- Activity (A549 [8]): 7.49%
- viability at 10 µM (A549 [9]): 74.3%
- Activity (A549 [10]): 55.95%
- Activity (A549 [11]): 35.16%
- Activity (A549 [12]): 57.38%
- Activity (A549 [13]): 11.77%
- Activity (A549 [14]): 12.65%
- Activity (A549 [15]): 28.68%
- Activity (A549 [24]): Active
- Ratio IC50 (A549 [25]): 2.4
